Laboratory results from patent US8658661B2, “Oxadiazole inhibitors of leukotriene production” (Boehringer Ingelheim International GmbH, priority 2010, dated 2014).

Experiments:
[1] = target: T1, recombinant human FLAP protein (Homo sapiens, UniProt P20292); test: FLAP binding assay (SPA, displacement of [125I]L-691,831); conditions: membranes of sf9 cells expressing recombinant human FLAP; [125I]L-691,831 probe; read-out: FLAP binding IC50
T1 construct: made in house; host or cells: Sf9 insect cells (100,000×g membrane pellet used)
T1 sequence (P20292 1-161): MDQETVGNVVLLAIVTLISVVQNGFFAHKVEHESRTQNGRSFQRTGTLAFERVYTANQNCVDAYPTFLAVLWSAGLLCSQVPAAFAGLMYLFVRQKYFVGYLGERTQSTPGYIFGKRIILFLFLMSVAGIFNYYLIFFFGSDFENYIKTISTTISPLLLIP
Procedure: Assessment of Biological Properties 1. Binding Assay
Compounds are assessed for the ability to bind to FLAP in a binding assay that measures compound-specific displacement of an iodinated (^125I) FLAP inhibitor via a Scintillation Proximity Assay format (adapted from S. Charleson et al., Mol. Pharmacol., 1992, 41, 873-879).
Cell pellets produced from sf9 insect cells expressing recombinant human FLAP protein are resuspended in buffer A [15 mM Tris-HCl (pH 7.5), 2 mM MgCl2, 0.3 mM EDTA, 1 mM PMSF]. The cells are lysed with a Dounce homogenizer and the material is centrifuged at 10,000×g for 10 minutes. The supernatant is then collected and centrifuged at 100,000×g for 60 minutes. To prepare membrane protein for an assay, an aliquot of the 100,000×g pellet is resuspended in 1 ml of buffer A, Dounce homogenized, and finally subjected to polytron mixing (30 seconds). Membrane protein (25 μl, 5 μg) is mixed with WGA SPA beads (Amersham) and stirred for 1 h. […] (final concentrations: beads, 200 μg/well; protein, 5 μg/well; [^125I] probe, 0 08 nM/well (17 nCi/well). The plates are shaken for 2 h before reading on a Microbeta plate reader. Non-specific binding is determined by the addition of 10 μM cold L-691,831 compound.

[2] = tested on: synthesis of LTB4 in human whole blood; test: Human whole blood assay (inhibition of LTB4 synthesis, calcimycin stimulated); type: cell-based; conditions: heparinized human whole blood, calcimycin 20 μM, plasma LTB4
Procedure: Compounds are additionally tested in a human whole blood assay to determine their ability to inhibit the synthesis of LTB4 in a cellular system. Compounds are combined with heparinized human whole blood and incubated for 15 minutes at 37° C. Calcimycin (20 μM final, prepared in phosphate-buffered saline, pH 7.4) is then added and the mixture is incubated for another 30 minutes at 37° C. The samples are centrifuged for 5 min at low speed (1500×g) and the plasma layer is removed. Plasma LTB4 concentrations are then measured using an antibody-based homogenous time-resolved fluorescence method (CisBio, Bedford, Mass.).

IC50 [1]	IC50 [2]	SMILES
13 nM	270 nM	CC(C)C(C)(c1ccc(-c2cnc(N)nc2)cc1)c1noc(N2CCOCC2)n1 (centres unmarked) [Example 89, 5-(4-{3-methyl-2-[5-(morpholin-4-yl)-1,2,4-oxadiazol-3-yl]butan-2-yl}phenyl)pyrimidin-2-amine]
9.1 nM	130 nM	CNc1ccc(-c2ccc(C(C)(c3noc(-c4cnn(CC(=O)N(C)C)c4)n3)C3CC3)cc2)cn1 (centres unmarked) [Example 251, 2-[4-(3-{1-Cyclopropyl-1-[4-(6-methylamino-pyridin-3-yl)-phenyl]-ethyl}-[1,2,4]oxadiazol-5-yl)-pyrazol-1-yl]-N,N-dimethyl-acetamide]
5.8 nM	260 nM	CC(C)C(C)(c1ccc(-c2cnc(N)nc2)cc1)c1noc(-c2ccn[nH]2)n1 (centres unmarked) [Example 19, 5-(4-{3-methyl-2-[5-(1H-pyrazol-5-yl)-1,2,4-oxadiazol-3-yl]butan-2-yl}phenyl)pyrimidin-2-amine]
16 nM	270 nM	CC(c1ccc(-c2cnc(N)nc2)cc1)(c1noc(N2CCC(S(C)(=O)=O)CC2)n1)C1CC1 (centres unmarked) [Example 259, 5-(4-{1-Cyclopropyl-1-[5-(4-methanesulfonyl-piperidin-1-yl)-[1,2,4]oxadiazol-3-yl]-ethyl}-phenyl)-pyrimidin-2-ylamine]
26 nM	2400 nM	CC(C)C(C)(c1ccc(-c2cnc(N)nc2)cc1)c1noc(C2CCCC(=O)N2C)n1 (centres unmarked) [Example 166, 6-(3-{2-[4-(2-aminopyrimidin-5-yl)phenyl]-3-methylbutan-2-yl}-1,2,4-oxadiazol-5-yl)-1-methylpiperidin-2-one]
7.5 nM	150 nM	CC(C)C(C)(c1ccc(-c2cnc(N)nc2)cc1)c1noc(N2CCN(C)CC2)n1 (centres unmarked) [Example 96, 5-(4-{3-methyl-2-[5-(4-methylpiperazin-1-yl)-1,2,4-oxadiazol-3-yl]butan-2-yl}phenyl)pyrimidin-2-amine]
3.3 nM	290 nM	CC(C)C(C)(c1ccc(-c2cnc(N)nc2)cc1)c1noc(-c2ccc[nH]c2=O)n1 (centres unmarked) [Example 12, 3-(3-{2-[4-(2-aminopyrimidin-5-yl)phenyl]-3-methylbutan-2-yl}-1,2,4-oxadiazol-5-yl)pyridin-2(1H)-one]
17 nM	900 nM	CC(C)(c1ccc(-c2cnc(N)nc2)cc1)c1noc(-c2ccc(NCCS(C)(=O)=O)nc2)n1 [Example 71, 5-(4-{2-[5-(6-{[2-(methylsulfonyl)ethyl]amino}pyridin-3-yl)-1,2,4-oxadiazol-3-yl]propan-2-yl}phenyl)pyrimidin-2-amine]
18 nM	350 nM	Cn1cc(-c2nc([C@](C)(c3ccc(-c4cnc(N)nc4)cc3)C3CC3)no2)cn1 [Example 62, 5-(4-{(1S)-1-cyclopropyl-1-[5-(1-methyl-1H-pyrazol-4-yl)-1,2,4-oxadiazol-3-yl]ethyl}phenyl)pyrimidin-2-amine]
15 nM	220 nM	CC(c1ccc(-c2cnc(N)nc2)cc1)(c1noc(N2CCN(CCO)CC2)n1)C1CC1 (centres unmarked) [Example 252, 2-[4-(3-{1-[4-(2-Amino-pyrimidin-5-yl)-phenyl]-1-cyclopropyl-ethyl}-[1,2,4]oxadiazol-5-yl)-piperazin-1-yl]-ethanol]
13 nM	49 nM	COCCn1cc(-c2nc([C@@](C)(c3ccc(-c4cnc(N)c(C)n4)cc3)C3CC3)no2)cn1 [Example 189, 5-[4-((R)-1-Cyclopropyl-1-{5-[1-(2-methoxy-ethyl)-1H-pyrazol-4-yl]-[1,2,4]oxadiazol-3-yl}-ethyl)-phenyl]-3-methyl-pyrazin-2-ylamine]
5.7 nM	310 nM	CN(C)C(=O)Cn1cc(-c2nc(C(C)(c3ccc(-c4cnc5[nH]ccc5c4)cc3)C3CC3)no2)cn1 (centres unmarked) [Example 242, 2-[4-(3-{1-Cyclopropyl-1-[4-(1H-pyrrolo[2,3-b]pyridin-5-yl)-phenyl]-ethyl}-[1,2,4]oxadiazol-5-yl)-pyrazol-1-yl]-N,N-dimethyl-acetamide]
2.5 nM	30 nM	CC(c1ccc(-c2cnc(N)nc2)cc1)(c1noc(-c2cnn(C3COC3)c2)n1)C1CC1 (centres unmarked) [Example 43, 5-[4-(1-cyclopropyl-1-{5-[1-(oxetan-3-yl)-1H-pyrazol-4-yl]-1,2,4-oxadiazol-3-yl}ethyl)phenyl]pyrimidin-2-amine]
5 nM	29 nM	CC1(O)CCN(c2nc(C(C)(c3ccc(-c4cnc(N)nc4)cc3)C3CC3)no2)CC1 (centres unmarked) [Example 238, 1-(3-{1-[4-(2-Amino-pyrimidin-5-yl)-phenyl]-1-cyclopropyl-ethyl}-[1,2,4]oxadiazol-5-yl)-4-methyl-piperidin-4-ol]
4.1 nM	710 nM	Cc1ncoc1-c1nc(C(C)(c2ccc(-c3cnc(N)nc3)cc2)C(C)C)no1 (centres unmarked) [Example 140, 5-(4-{3-methyl-2-[5-(4-methyl-1,3-oxazol-5-yl)-1,2,4-oxadiazol-3-yl]butan-2-yl}phenyl)pyrimidin-2-amine]
3 nM	35 nM	CNc1ccc(-c2ccc([C@](C)(c3noc(-c4cnn(CC(=O)N(C)C)c4)n3)C3CC3)cc2)cn1 [Example 280, 2-[4-(3-{(R)-1-Cyclopropyl-1-[4-(6-methylamino-pyridin-3-yl)-phenyl]-ethyl}-[1,2,4]oxadiazol-5-yl)-pyrazol-1-yl]-N,N-dimethyl-acetamide]
4.6 nM	280 nM	C[C@@](c1ccc(-c2cnc(N)cn2)cc1)(c1noc(-c2cnc(N3CCNCC3)cn2)n1)C1CC1 [Example 195, 5-(4-{(R)-1-Cyclopropyl-1-[5-(3,4,5,6-tetrahydro-2H-[1,2′]bipyrazinyl-5′-yl)-[1,2,4]oxadiazol-3-yl]-ethyl}-phenyl)-pyrazin-2-ylamine]
5 nM	160 nM	CN(C)C(=O)Cn1cc(-c2nc([C@@](C)(c3ccc(-c4cnc(N)c(C(F)(F)F)c4)cc3)C3CC3)no2)cn1 [Example 281, 2-[4-(3-{(R)-1-[4-(6-Amino-5-trifluoromethyl-pyridin-3-yl)-phenyl]-1-cyclopropyl-ethyl}-[1,2,4]oxadiazol-5-yl)-pyrazol-1-yl]-N,N-dimethyl-acetamide]
3.2 nM	170 nM	COCCNc1cnc(-c2nc(C(C)(c3ccc(-c4cnc(N)nc4)cc3)C3CCC3)no2)cn1 (centres unmarked) [Example 36, 5-{4-[1-cyclobutyl-1-(5-{5-[(2-methoxyethyl)amino]pyrazin-2-yl}-1,2,4-oxadiazol-3-yl)ethyl]phenyl}pyrimidin-2-amine]
4.2 nM	46 nM	Cn1cc(-c2nc(C(C)(c3ccc(-c4cnc(N)nc4)cc3)C3CC3)no2)cn1 (centres unmarked) [Example 22, 5-(4-{1-cyclopropyl-1-[5-(1-methyl-1H-pyrazol-4-yl)-1,2,4-oxadiazol-3-yl]ethyl}phenyl)pyrimidin-2-amine]
35 nM	270 nM	COCCn1cc(-c2nc(C(C)(C)c3ccc(-c4cnc(N)nc4)cc3)no2)cn1 [Example 76, 5-[4-(2-{5-[1-(2-methoxyethyl)-1H-pyrazol-4-yl]-1,2,4-oxadiazol-3-yl}propan-2-yl)phenyl]pyrimidin-2-amine]
9.1 nM	160 nM	Cn1ccc(-c2nc(C(C)(c3ccc(-c4cnc(N)nc4)cc3)C3CC3)no2)n1 (centres unmarked) [Example 26, 5-(4-{1-cyclopropyl-1-[5-(1-methyl-1H-pyrazol-3-yl)-1,2,4-oxadiazol-3-yl]ethyl}phenyl)pyrimidin-2-amine]
